{"source": "PubChem BioAssay AID1259407", "about": "(Chemical Carcinogenesis Research Information System (CCRIS), 2018)", "test_system": "CCRIS mutagenicity, Ames/micronucleus/aberration tests", "experiment": "CCRIS mutagenicity studies", "conditions": "Test System: AMES SALMONELLA TYPHIMURIUM", "key": {"[1]": {"conditions": "Strain/Indicator: TA98, Metabolic Activation: RAT, LIVER, S-9, AROCLOR 1254, Method: STANDARD PLATE"}, "[2]": {"conditions": "Strain/Indicator: TA100, Metabolic Activation: NONE, Method: STANDARD PLATE"}, "[3]": {"conditions": "Strain/Indicator: TA100, Metabolic Activation: RAT, LIVER, S-9, AROCLOR 1254, Method: STANDARD PLATE"}, "[4]": {"conditions": "Strain/Indicator: TA1535, Metabolic Activation: RAT, LIVER, S-9, AROCLOR 1254, Method: STANDARD PLATE"}, "[5]": {"conditions": "Strain/Indicator: TA98, Metabolic Activation: NONE, Method: PREINCUBATION"}}, "note": "Activity calls are given as the source filed them. No rule for the calls is given here."}
{"smiles": "CN1CCN(C2=Nc3cc(Cl)ccc3Nc3ccccc32)CC1", "values": [{"measurement": "mutagenic call", "setting": "Strain/Indicator: TA98, Metabolic Activation: NONE, Method: STANDARD PLATE", "value": "inactive; negative"}, {"measurement": "mutagenic call", "setting": "[1]", "value": "inactive; negative"}, {"measurement": "mutagenic call", "setting": "[2]", "value": "inactive; negative"}, {"measurement": "mutagenic call", "setting": "[3]", "value": "inactive; negative"}, {"measurement": "mutagenic call", "setting": "Strain/Indicator: TA1535, Metabolic Activation: NONE, Method: STANDARD PLATE", "value": "inactive; negative"}, {"measurement": "mutagenic call", "setting": "[4]", "value": "inactive; negative"}, {"measurement": "mutagenic call", "setting": "Strain/Indicator: TA1537, Metabolic Activation: NONE, Method: STANDARD PLATE", "value": "inactive; negative"}, {"measurement": "mutagenic call", "setting": "Strain/Indicator: TA1537, Metabolic Activation: RAT, LIVER, S-9, AROCLOR 1254, Method: STANDARD PLATE", "value": "inactive; negative"}]}
{"smiles": "CC(C)OC(=O)C=Cc1ccc([N+](=O)[O-])o1", "values": [{"measurement": "mutagenic call", "setting": "[5]", "value": "active; positive"}]}
{"smiles": "Clc1cccc2cccnc12", "values": [{"measurement": "mutagenic call", "setting": "Strain/Indicator: TA100, Metabolic Activation: RAT, LIVER, S-9, PHENOBARBITAL AND 5,6-BENZOFLAVONE, Method: PREINCUBATION", "value": "active; positive"}, {"measurement": "mutagenic call", "setting": "Strain/Indicator: TA100, Metabolic Activation: S-9, Method: PREINCUBATION", "value": "inactive; negative"}]}
{"smiles": "CCCCOO", "values": [{"measurement": "mutagenic call", "setting": "[2]", "value": "inactive; negative"}, {"measurement": "mutagenic call", "setting": "Strain/Indicator: TA102, Metabolic Activation: NONE, Method: STANDARD PLATE", "value": "active; positive"}]}
{"smiles": "O=c1[nH]c2c(c(=O)n1C1CCCCC1)CCC2", "values": [{"measurement": "mutagenic call", "setting": "Strain/Indicator: TA97, Metabolic Activation: RAT, LIVER, S-9, AROCLOR 1254, Method: STANDARD PLATE", "value": "inactive; negative"}, {"measurement": "mutagenic call", "setting": "Strain/Indicator: TA97, Metabolic Activation: RAT, LIVER, S-9, AROCLOR 1254 AND NADPH, Method: STANDARD PLATE", "value": "inactive; negative"}, {"measurement": "mutagenic call", "setting": "[1]", "value": "inactive; negative"}, {"measurement": "mutagenic call", "setting": "Strain/Indicator: TA98, Metabolic Activation: RAT, LIVER, S-9, AROCLOR 1254 AND NADPH, Method: STANDARD PLATE", "value": "inactive; negative"}, {"measurement": "mutagenic call", "setting": "[3]", "value": "inactive; negative"}, {"measurement": "mutagenic call", "setting": "Strain/Indicator: TA100, Metabolic Activation: RAT, LIVER, S-9, AROCLOR 1254 AND NADPH, Method: STANDARD PLATE", "value": "inactive; negative"}, {"measurement": "mutagenic call", "setting": "Strain/Indicator: TA102, Metabolic Activation: RAT, LIVER, S-9, AROCLOR 1254, Method: STANDARD PLATE", "value": "inactive; negative"}, {"measurement": "mutagenic call", "setting": "Strain/Indicator: TA102, Metabolic Activation: RAT, LIVER, S-9, AROCLOR 1254 AND NADPH, Method: STANDARD PLATE", "value": "inactive; negative"}]}
{"smiles": "OC1C=Cc2cc3c(cc2C1O)-c1cccc2cccc-3c12", "note": "(stereo not given)", "values": [{"measurement": "mutagenic call", "setting": "[3]", "value": "active; positive"}]}
{"smiles": "O=c1oc2cccc3ccc4cccc1c4c32", "values": [{"measurement": "mutagenic call", "setting": "[5]", "value": "inactive; negative"}, {"measurement": "mutagenic call", "setting": "Strain/Indicator: TA98, Metabolic Activation: RAT, LIVER, S-9, AROCLOR 1254, Method: PREINCUBATION", "value": "inactive; negative"}, {"measurement": "mutagenic call", "setting": "Strain/Indicator: TA100, Metabolic Activation: NONE, Method: PREINCUBATION", "value": "inactive; negative"}, {"measurement": "mutagenic call", "setting": "Strain/Indicator: TA100, Metabolic Activation: RAT, LIVER, S-9, AROCLOR 1254, Method: PREINCUBATION", "value": "inactive; negative"}]}
{"smiles": "Nc1c(O)cc(Cc2cc(Cl)c(N)c(OS(=O)(=O)O)c2)cc1Cl", "values": [{"measurement": "mutagenic call", "setting": "Strain/Indicator: TA1538, Metabolic Activation: NONE, Method: PREINCUBATION", "value": "inactive; negative"}, {"measurement": "mutagenic call", "setting": "Strain/Indicator: TA1538, Metabolic Activation: NONE, Method: STANDARD PLATE", "value": "inactive; negative"}]}
{"smiles": "CNC(=O)Oc1cc2ccccc2c2ccccc12", "values": [{"measurement": "mutagenic call", "setting": "[1]", "value": "inactive; negative"}, {"measurement": "mutagenic call", "setting": "[4]", "value": "active; positive"}]}
